Assay results taken from US20180064662A1 (THE GENERAL HOSPITAL CORPORATION, priority 2015, published 2018).
Each block holds one compound with its values, some of them ahead of it.

Columns and labels:
[1] = test system: PAN02 tumors; experiment: Orthotopic PAN02 PDAC in lean and obese C57BL/6 mice (5-FU, losartan, TAN depletion, IL-1β inhibition); format: in vivo, mouse; settings: for gene and protein expression of activated PSC marker αSMA: losartan 90 mg/Kg i.p. every day
Source text: (§1) Wild-type (WT) C57BL/6 and FVB male mice were originally obtained from Jackson Laboratory (The Jackson Laboratory, Bar Harbor, Me.) and bred and maintained in our defined-flora colony. KPC (Ptfl-Cre/LSL-KRAS^G12D/p53-R172H) and iKRAS (p48-Cre;R26-rtTa-IRES-EGFP;TetO-Kras^G12D mice) mice were obtained. To generate an obese model, mice (6-week old) were given either 10% or a 60% fat diet (D12450J and D12492, Research Diets, New Brunswick, N.J.) for 10 weeks (or until tumor collection in spontaneous models), as previously described (Surwit, R. S., et al. Metabolism: clinical and experimental 44, 645-651 (1995)). For implanted tumor experiments, AK4.4 cells (KrasG12D and p53 ? /−) were isolated from mice generating spontaneous pancreatic tumors (Ptf1-Cre/LSL-Kras^G12D/p53Lox/ ? ) (Bardeesy, N., et al. Proc Natl Acad SciUSA103, 5947-5952 (2006)). Orthotopic pancreatic tumors were generated by implanting a small piece (1 mm^3) of viable tumor tissue (from a source tumor in a separate animal) into the pancreas of a 6-8 week-old male lean or obese FVB (AK4.4 model) or C57BL/6 (PAN02 model) mouse. PAN02 tumor chunks and AK4.4 cells were authenticated by IDEXX laboratories. (PAN02: IDEXX RADIL Case # 22366-2013. AK4.4: IDEXX RADIL Case #27818-2014). For AT1- and AT2-knockout studies, tumors were implanted into the pancreas of a 6-8-week-old male lean or obese C57BL/ 6, agtr1 a−/− or agtr2−/− mice.
(§2) For all experiments unless specified below, mice bearing orthotropic PAN02 or AK4.4 pancreatic tumors were randomized into treatment groups (or no treatment) and tumors were collected at day 21 after implantation. For tumor growth study with chemotherapy, mice were divided into treatment groups 7 days after implantation, and treated with either 5-FU (30 mg/Kg i.v. every 4 days) or an equal volume of saline by intravenous injection on days 7, 11 and 15 after implantation, with tumors collected at day 19. For tumor growth study with losartan, mice were treated with losartan (90 mg/Kg i.p. every day) or an equal volume of PBS intraperitoneally starting on day 5 after implantation and for the duration of the study. In the combined experiment of losartan and 5-FU, the same protocol was used for each drug as described above. TAN depletion by a Ly6G specific inhibitor (BioExcell, 4 mg/Kg i.p. every 2 days) was administered to PAN02 bearing animals starting at day 1 or day 7, and to AK4.4 bearing animals at day 7. IL-1β inhibition (MM425B, Endogen/Pierce Biotechnology, 2 mg/Kg i.p. every 2 days) was administered to PAN02 bearing animals starting at day 7. At the completion of the study, adipose tissue and tumor samples were collected, weighed, and processed for further analysis. When spontaneous models were used, tumors were collected when palpable.
(§3) Angiotensin inhibitor losartan was obtained as pills, crushed and dissolved in PBS over 24 h. The solution was then sterile filtered for injection. Doxorubicin and 5-FU were obtained as solutions for injection. All drugs were purchased from the pharmacy at Massachusetts General
(§4) To assess obesity-induced ECM remodeling and fibrosis fibrillar collagen accumulation was quantified using second harmonic generation imaging, and collagen-I content, hyaluronan, MMPs levels and fibrosis related signaling pathways (e.g. AT-I, CTGF, TSP1, TGFβ1, and P38/ERK signaling) were measured by rtPCR array, immunohistochemistry and immunoblotting. The topographical distribution and density of cancer-associated fibroblasts (CAFs) in tumor sections was detected by staining for αSMA activated fibroblast marker. Vessel morphology and perfusion was assessed using standard histological analyses.

[2] = test system: AK4.4 tumors; experiment: Orthotopic AK4.4 PDAC in lean and obese FVB mice (5-FU, losartan, TAN depletion); format: in vivo, mouse; settings: for response to chemotherapy: losartan with 5-FU
Source text: as §1, §2, §3, §4

[3] = test system: PAN02 tumors; experiment: Delivery of chemotherapy to tumors in lean and obese mice; settings: 5-FU 30 mg/kg, 30 min prior to tumor removal, HPLC
[4] = test system: breast cancer; experiment: Breast cancer patients treated with bevacizumab in the neoadjuvant setting; format: in vivo, human; settings: normal weight patients
[5] = lean mice, 3 doses of 5-FU 30 mg/kg BW q4d
[6] = obese conditions, 5-FU 30 mg/kg q4d
[7] = obese mice, losartan monotherapy
[8] = tumors from lean mice, losartan
[9] = tumors from obese but not lean mice, losartan
[10] = tumors from obese mice, losartan

delivery of 5-FU to tumors in obese mice versus lean [3]: decreased
Compound: O=c1[nH]cc(F)c(=O)[nH]1 [5-FU, 5-fluorouracil]
reduction in tumor weight as compared to untreated controls [1, 5]: 50%
tumor weight [1, 6]: did not significantly reduce tumor weight
reduction in tumor weight as compared to untreated controls [2, 5]: 50%
tumor weight [2, 6]: did not significantly reduce tumor weight

Compound: CCCCc1nc(Cl)c(CO)n1Cc1ccc(-c2ccccc2-c2nn[nH]n2)cc1 [losartan]
gene and protein expression of activated PSC marker αSMA ([1]; lean animals): only mildly
response to chemotherapy ([1]; obese animals, losartan with 5-FU): improved response to chemotherapy
cytokine expression in tumors (multiplex protein) ([1]; obese mice, losartan): reduced the expression of multiple cytokines including IL-1β
tumor weight [1, 7]: reduced tumor weight
gene and protein expression of collagen-I and fibrillar collagen [1, 8]: not lean mice
gene and protein expression of activated PSC marker αSMA ([1]; tumors from obese animals): reduce gene and protein expression
chemotherapy delivery [1, 9]: increase chemotherapy delivery
tumor perfusion [1, 9]: tended to improve perfusion
gene and protein expression of collagen-I and fibrillar collagen [1, 10]: decrease in gene and protein expression of collagen-I as well as fibrillar collagen
desmoplasia-related markers and AT1 downstream signaling ([2]; lean animals, losartan): only modest
gene and protein expression of activated PSC marker αSMA ([2]; lean animals, losartan): only mildly
response to chemotherapy ([2]; lean setting): improved response to chemotherapy
enrichment for GR(+)F480(-) cells within the CD45 population ([2]; losartan treatment): tended to decrease the enrichment
enrichment for T regulatory cells within CD4 cells ([2]; losartan treatment): tended to decrease
cytokine expression in tumors (multiplex protein) ([2]; obese mice, losartan): reduced the expression of multiple cytokines including IL-1β
desmoplasia-related markers (AT1, TGF-β, SMAD2, vimentin, E-cadherin, snail, MMP9, decorin) and AT1 downstream signaling ([2]; obese mice, losartan): normalized the obesity-induced abnormal expression
tumor weight [2, 7]: reduced tumor weight
response to chemotherapy ([2]; obese setting): higher magnitude
gene and protein expression of collagen-I and fibrillar collagen [2, 8]: not lean mice
gene and protein expression of activated PSC marker αSMA ([2]; tumors from obese animals, losartan 90 mg/Kg i.p. every day): reduce gene and protein expression
chemotherapy delivery [2, 9]: increase chemotherapy delivery
tumor perfusion [2, 9]: tended to improve perfusion
gene and protein expression of collagen-I and fibrillar collagen [2, 10]: decrease in gene and protein expression of collagen-I as well as fibrillar collagen

Compound: bevacizumab: antibody against VEGF
tumor hypoxia [4]: acutely increases tumor hypoxia
tumor vessels [4]: reduces tumor vessels
